Read-outs that look alike come from different tables or passages of the source.
How the values were obtained:
[1] = biological target: T1, BChE (Homo sapiens, UniProt P06276); details: cited from earlier work
[2] = biological target: T2, AChE (Homo sapiens, UniProt P22303); assay: biochemical; details: in vitro, triplicate; read-out: AchE IC50 ± SEM
Experimental: (§1) With some modifications, inhibitory potential against AChE and BuChE was investigated according to the reported protocol. […] Added test compound (well-1) with volume of 10 µL and a concentration of 0.5 mM followed by the addition of an enzyme of 10 µL (0.005 unit well-1). Pre-incubation of substances at 37 °C for 10 min was achieved. Reaction was started by adding 10 µL of 0.5 mM well-1 substrate (acetylthiocholine iodide/ butyrylthiochloine chloride) followed by addition of 10 µL DTNB (0.5 mM well-1). […] All experiments were performed with their respective controls in triplicate. […] The % inhibition was computed using the following equation:Inhibition (%) = Control − Test/control × 100 […]
(§2) S.2 AChE and BuChE assay protocols
(§3) With a little bit modification, inhibitory potential against AChE and BuChE was investigated according to the reported protocol. The total volume of the reaction mixture was kept at 100 µL, […]
(§4) compound (well-1) with volume of 10µL and a concentration of 0.5mM followed by the addition of an enzyme of 10 µL (0.005 unit well-1). Pre-incubation of substances at 37 °C for 10 min was achieved. Reaction was started by addition of 10µL of 0.5mM well-1 substrate (acetylthiocholine iodide/ butyrylthiochloine chloride) followed by addition of 10µL DTNB (0.5mM well-1).
(§5) Synergy HT, BioTek, US. All experiments were done with their respective controls in triplicate.
(§6) The % inhibition was computed using the following equation
(§7) Inhibition (%) = Control – Test/control x 100
(§8) Control EZ-Fit Enzyme kinetics software (Perrella Scientific Inc. Amherst, USA) was used for the calculation of IC50 values. […]

[3] = biological target: T1, BChE; assay: biochemical; details: in vitro, triplicate; read-out: BChE IC50 ± SEM
Experimental: as §1, §2, §3, §4, §5, §6, §7, §8

[4] = test system: enzyme; assay: Enzyme kinetics (mode of inhibition); format: biochemical
Excerpt: This is an in vitro approach, which measures the initial inhibition rate with the change in the inhibitor concentration.

[5] = biological target: T2, AChE; details: previously reported thiazolidinone analog; read-out: IC50 against AChE; cited from earlier work

T1 sequence (P06276 29-602): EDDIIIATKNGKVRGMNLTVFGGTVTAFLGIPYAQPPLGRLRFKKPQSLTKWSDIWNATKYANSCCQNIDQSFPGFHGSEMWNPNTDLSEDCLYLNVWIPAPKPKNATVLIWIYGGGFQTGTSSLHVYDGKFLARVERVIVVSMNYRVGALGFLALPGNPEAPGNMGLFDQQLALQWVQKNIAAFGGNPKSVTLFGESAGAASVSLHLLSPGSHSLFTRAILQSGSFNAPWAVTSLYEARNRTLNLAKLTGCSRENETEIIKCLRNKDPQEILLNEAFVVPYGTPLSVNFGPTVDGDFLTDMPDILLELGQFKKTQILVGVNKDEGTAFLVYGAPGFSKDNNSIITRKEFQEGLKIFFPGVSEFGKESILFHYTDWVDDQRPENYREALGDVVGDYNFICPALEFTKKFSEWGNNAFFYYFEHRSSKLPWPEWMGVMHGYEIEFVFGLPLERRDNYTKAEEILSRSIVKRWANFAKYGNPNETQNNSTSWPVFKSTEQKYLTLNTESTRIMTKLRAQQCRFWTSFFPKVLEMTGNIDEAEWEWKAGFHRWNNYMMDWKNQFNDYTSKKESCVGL
T2 sequence (P22303 32-614): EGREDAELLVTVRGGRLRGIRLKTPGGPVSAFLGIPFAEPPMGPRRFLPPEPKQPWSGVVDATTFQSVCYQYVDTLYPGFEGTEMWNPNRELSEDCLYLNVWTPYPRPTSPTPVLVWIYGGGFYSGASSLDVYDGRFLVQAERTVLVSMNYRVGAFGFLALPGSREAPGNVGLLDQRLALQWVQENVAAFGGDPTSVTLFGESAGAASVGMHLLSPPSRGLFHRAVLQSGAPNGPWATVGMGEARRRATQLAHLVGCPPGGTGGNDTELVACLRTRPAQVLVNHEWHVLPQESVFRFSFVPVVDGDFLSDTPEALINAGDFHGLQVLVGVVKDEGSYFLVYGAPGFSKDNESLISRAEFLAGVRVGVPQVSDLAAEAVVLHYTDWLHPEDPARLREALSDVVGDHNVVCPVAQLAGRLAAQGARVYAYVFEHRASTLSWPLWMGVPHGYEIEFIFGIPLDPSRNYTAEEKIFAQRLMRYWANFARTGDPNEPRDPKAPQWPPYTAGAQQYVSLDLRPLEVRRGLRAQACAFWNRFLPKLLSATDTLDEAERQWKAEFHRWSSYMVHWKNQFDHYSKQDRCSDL

Row | SMILES | IC50 [2] [µM] | IC50 [3] [µM] | also measured
1 | Cc1ccc(-c2cn(Cc3ccc4ccccc4c3)nn2)cc1C(=O)NCCN1CCOCC1 [2-methyl-N-(2-morpholinoethyl)-5-(1-(naphthalen-2-ylmethyl)-1H-1,2,3-triazol-4-yl)benzamide] |  |  | IC50 ([1]; read-out: IC50 for BChE, previously reported triazole analog): 90.76 ± 0.21 µM
2 | COc1cc(-c2nnc3[nH]ccn23)ccc1N1C(=O)CSC1c1ccc(F)cc1F (stereo not shown) [Analog 3] | 8.1 ± 0.4 | 8.5 ± 0.3 | 
3 | COc1cc(-c2nnc3[nH]ccn23)ccc1N1C(=O)CSC1c1ccc(C(F)(F)F)cc1 (stereo not shown) [Analog 10] | 6.7 ± 0.2 | 7.1 ± 0.1 | Mode of inhibition (enzyme kinetics) [4]: competitive inhibitor
4 | COc1cc(-c2nnc3[nH]ccn23)ccc1N1C(=O)CSC1c1ccc(F)cc1O (stereo not shown) [Analog 11] | 8.3 ± 0.2 | 8.6 ± 0.3 | 
5 | O=C1/C(=C\c2ccc(N3CCCC3)cc2)S/C(=N/N2CCOCC2)N1c1ccccc1 [(E)-2-(morpholinoimino)-3-phenyl-5-((E)-4-(pyrrolidin-1-yl)benzylidene)thiazolidin-4-one] |  |  | IC50 [5]: 17.4 ± 0.22 µM; IC50 ([1]; previously reported thiazolidinone analog, read-out: IC50 against BChE): 24.4 ± 0.51 µM

From publication PMC11944621, “Synthesis, Molecular Simulation, DFT, and Kinetic Study of Imidazotriazole-Based Thiazolidinone as Dual Inhibitor of Acetylcholinesterase and Butyrylcholinesterase Enzymes” (Pharmaceuticals, 2025)
